Laboratory results taken from patent US12612407B2, “Imidazo[2,1-f][1,2,4]triazin-4-amine derivatives as TLR7 agonist” (BEIGENE, LTD., priority 2020, dated 2026).

Molecular target: T1, human TLR7 (Homo sapiens, UniProt Q9NYK1)
T1 construct: host or cells: HEK293 (HEK-Blue hTLR7)
T1 sequence (Q9NYK1 27-1049): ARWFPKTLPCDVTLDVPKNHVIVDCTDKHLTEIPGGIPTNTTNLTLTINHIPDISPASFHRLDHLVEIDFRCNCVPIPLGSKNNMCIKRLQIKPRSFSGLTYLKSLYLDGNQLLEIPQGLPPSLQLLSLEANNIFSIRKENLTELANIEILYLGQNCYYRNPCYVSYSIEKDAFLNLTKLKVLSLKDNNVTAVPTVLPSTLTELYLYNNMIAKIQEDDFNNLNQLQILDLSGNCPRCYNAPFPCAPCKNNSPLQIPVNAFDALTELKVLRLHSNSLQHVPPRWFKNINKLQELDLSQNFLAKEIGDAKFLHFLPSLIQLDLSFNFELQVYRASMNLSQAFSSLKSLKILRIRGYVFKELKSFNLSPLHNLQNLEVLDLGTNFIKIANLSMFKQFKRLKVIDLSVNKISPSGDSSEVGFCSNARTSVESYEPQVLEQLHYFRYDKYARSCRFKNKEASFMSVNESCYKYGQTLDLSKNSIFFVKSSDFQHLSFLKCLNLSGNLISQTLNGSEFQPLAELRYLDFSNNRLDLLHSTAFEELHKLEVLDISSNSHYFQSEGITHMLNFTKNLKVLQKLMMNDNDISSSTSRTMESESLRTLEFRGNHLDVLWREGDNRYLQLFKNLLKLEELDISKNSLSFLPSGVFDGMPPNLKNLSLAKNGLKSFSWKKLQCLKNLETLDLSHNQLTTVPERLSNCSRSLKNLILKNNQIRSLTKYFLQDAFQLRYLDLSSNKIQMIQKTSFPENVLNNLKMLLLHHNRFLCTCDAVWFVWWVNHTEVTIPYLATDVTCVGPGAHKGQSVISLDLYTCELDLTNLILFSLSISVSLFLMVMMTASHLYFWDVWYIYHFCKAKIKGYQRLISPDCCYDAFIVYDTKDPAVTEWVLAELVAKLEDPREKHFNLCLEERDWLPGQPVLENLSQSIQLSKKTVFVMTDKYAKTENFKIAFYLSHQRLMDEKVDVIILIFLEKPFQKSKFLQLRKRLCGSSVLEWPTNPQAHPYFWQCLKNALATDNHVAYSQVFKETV
Experiment: HEK293-Blue hTLR7 Reporter Assay (QUANTI-BLUE, SEAP readout)
Assay type: cell-based
Details: HEK-Blue-hTLR7 cells, 24 hrs treatment, Table 1, B1-B232
Method in brief: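 Compound titrations were applied for 24 h at 37° C to reporter HEK293 cells (4×10^4 per well) in which human TLR7 activation drives secreted alkaline phosphatase. Supernatants reacted with Quanti-blue 10-30 min, absorbance read at 620-655 nm, and EC50 derived by sigmoidal curve fitting.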

| Compound | EC50 |
| --- | --- |
| CCCCOc1nc(N)c2ncc(Cc3cnc(N4CCN(C(=O)CCCCN(C)C)CC4)c(C)c3)n2n1 [Compound B50, 1-(4-(5-((4-amino-2-butoxyimidazo[2,1-f][1,2,4]triazin-7-yl)methyl)-3-methylpyridin-2-yl)piperazin-1-yl)-5-(dimethylamino)pentan-1-one] | 0.151 µM |
| CCCCOc1nc(N)c2ncc(Cc3cnc(N4CCCC4)c(C)c3)n2n1 [Compound B51, 2-butoxy-7-((5-methyl-6-(pyrrolidin-1-yl)pyridin-3-yl)methyl)imidazo[2,1-f][1,2,4]triazin-4-amine] | > 10 µM |
| CCCCOc1nc(N)c2ncc(Cc3cnc(N4CCOCC4)c(C)c3)n2n1 [Compound B52, 2-butoxy-7-((5-methyl-6-morpholinopyridin-3-yl)methyl)imidazo[2,1-f][1,2,4]triazin-4-amine] | > 10 µM |
| CCCCOc1nc(N)c2ncc(Cc3ccc(N4CCNCC4)nc3C)n2n1 [Compound B53, 2-butoxy-7-((2-methyl-6-(piperazin-1-yl)pyridin-3-yl)methyl)imidazo[2,1-f][1,2,4]triazin-4-amine] | 0.803 µM |
| CCCCOc1nc(N)c2ncc(Cc3ccc(C4CCNCC4)nc3C)n2n1 [Compound B54, 2-butoxy-7-((2-methyl-6-(piperidin-4-yl)pyridin-3-yl)methyl)imidazo[2,1-f][1,2,4]triazin-4-amine] | 0.158 µM |
| CCCCOc1nc(N)c2ncc(Cc3cnc(N4CC(C)NC(C)C4)c(C)c3)n2n1 (stereo not shown) [Compound B55, 2-butoxy-7-((6-(3,5-dimethylpiperazin-1-yl)-5-methylpyridin-3-yl)methyl)imidazo[2,1-f][1,2,4]triazin-4-amine] | 0.196 µM |
| CCCCOc1nc(N)c2ncc(Cc3cnc(N4CCN(C(=O)C5CCNCC5)CC4)c(C)c3)n2n1 [Compound B56, (4-(5-((4-amino-2-butoxyimidazo[2,1-f][1,2,4]triazin-7-yl)methyl)-3-methylpyridin-2-yl)piperazin-1-yl)(piperidin-4-yl)methanone] | 0.422 µM |
| CCCCOc1nc(N)c2ncc(Cc3cnc(N4CCN(C(C)=O)CC4)c(C)c3)n2n1 [Compound B57, 1-(4-(5-((4-amino-2-butoxyimidazo[2,1-f][1,2,4]triazin-7-yl)methyl)-3-methylpyridin-2-yl)piperazin-1-yl)ethan-1-one] | 3.8 µM |
| CCCCOc1nc(N)c2ncc(Cc3cnc(N4CCN(C(=O)CN(C)C(C)=O)CC4)c(C)c3)n2n1 [Compound B58, N-(2-(4-(5-((4-amino-2-butoxyimidazo[2,1-f][1,2,4]triazin-7-yl)methyl)-3-methylpyridin-2-yl)piperazin-1-yl)-2-oxoethyl)-N-methylacetamide] | 3.25 µM |
| CCCCOc1nc(N)c2ncc(Cc3cnc(N4CCC(CN(C)C)CC4)c(C)c3)n2n1 [Compound B59, 2-butoxy-7-((6-(4-((dimethylamino)methyl)piperidin-1-yl)-5-methylpyridin-3-yl)methyl)imidazo[2,1-f][1,2,4]triazin-4-amine] | 0.02 µM |
| CCCCOc1nc(N)c2ncc(Cc3cnc(N4CCC(N)CC4)c(C)c3)n2n1 [Compound B60, 7-((6-(4-aminopiperidin-1-yl)-5-methylpyridin-3-yl)methyl)-2-butoxyimidazo[2,1-f][1,2,4]triazin-4-amine] | 0.05 µM |
| CCCCOc1nc(N)c2ncc(Cc3ccc(N4CC(C)NC(C)C4)c(C)c3)n2n1 (stereo not shown) [Compound B61, 2-butoxy-7-(4-(3,5-dimethylpiperazin-1-yl)-3-methylbenzyl)imidazo[2,1-f][1,2,4]triazin-4-amine] | 0.66 µM |
| COc1nc(N)c2ncc(Cc3cnc(N4CCNCC4)c(C)c3)n2n1 [Compound B62, 2-methoxy-7-((5-methyl-6-(piperazin-1-yl)pyridin-3-yl)methyl)imidazo[2,1-f][1,2,4]triazin-4-amine] | > 10 µM |
| CCOc1nc(N)c2ncc(Cc3cnc(N4CCNCC4)c(C)c3)n2n1 [Compound B63, 2-ethoxy-7-((5-methyl-6-(piperazin-1-yl)pyridin-3-yl)methyl)imidazo[2,1-f][1,2,4]triazin-4-amine] | 0.9 µM |
| CCCCOc1nc(N)c2ncc(Cc3ccc(C4CCNCC4)c(C)c3)n2n1 [Compound B64, 2-butoxy-7-(3-methyl-4-(piperidin-4-yl)benzyl)imidazo[2,1-f][1,2,4]triazin-4-amine] | 0.448 µM |
| CCCC(C)Oc1nc(N)c2ncc(Cc3cnc(N4CCNCC4)c(C)c3)n2n1 (stereo not shown) [Compound B65, 7-((5-methyl-6-(piperazin-1-yl)pyridin-3-yl)methyl)-2-(pentan-2-yloxy)imidazo[2,1-f][1,2,4]triazin-4-amine] | 0.026 µM |
| Cc1cc(Cc2cnc3c(N)nc(OC(C)C)nn23)cnc1N1CCNCC1 [Compound B66, 2-isopropoxy-7-((5-methyl-6-(piperazin-1-yl)pyridin-3-yl)methyl)imidazo[2,1-f][1,2,4]triazin-4-amine] | 0.146 µM |
| CCCCOc1nc(N)c2ncc(Cc3cnc(N4CCN(C(=O)[C@@H](N)[C@@H](C)CC)CC4)c(C)c3)n2n1 [Compound B67, (2S,3S)-2-amino-1-(4-(5-((4-amino-2-butoxyimidazo[2,1-f][1,2,4]triazin-7-yl)methyl)-3-methylpyridin-2-yl)piperazin-1-yl)-3-methylpentan-1-one] | 0.336 µM |
| CCCCOc1nc(N)c2ncc(Cc3cnc(N4CCN(C(=O)[C@@H]5CCCN5)CC4)c(C)c3)n2n1 [Compound B68, (S)-4-amino-2-butoxy-7-((5-methyl-6-(4-prolylpiperazin-1-yl)pyridin-3-yl)methyl)imidazo[2,1-f][1,2,4]triazine] | 0.106 µM |
| CCCCOc1nc(N)c2ncc(Cc3cnc(N4CCN(C(=O)[C@@H](N)CC(C)C)CC4)c(C)c3)n2n1 [Compound B69, (S)-2-amino-1-(4-(5-((4-amino-2-butoxyimidazo[2,1-f][1,2,4]triazin-7-yl)methyl)-3-methylpyridin-2-yl)piperazin-1-yl)-4-methylpentan-1-one] | 0.313 µM |
| CCCCOc1nc(N)c2ncc(Cc3cnc(N4CCN(C(=O)[C@@H](N)C(C)C)CC4)c(C)c3)n2n1 [Compound B70, (S)-2-amino-1-(4-(5-((4-amino-2-butoxyimidazo[2,1-f][1,2,4]triazin-7-yl)methyl)-3-methylpyridin-2-yl)piperazin-1-yl)-3-methylbutan-1-one] | 0.212 µM |
| CCCCNc1nc(N)c2ncc(Cc3cnc(N4CCN(C(=O)CN(C)C)CC4)c(C)c3)n2n1 [Compound B71, 1-(4-(5-((4-amino-2-(butylamino)imidazo[2,1-f][1,2,4]triazin-7-yl)methyl)-3-methylpyridin-2-yl)piperazin-1-yl)-2-(dimethylamino)ethan-1-one] | 0.031 µM |
| CCCCOc1nc(N)c2ncc(Cc3cnc(N4CCN(CC(=O)N(C)C)CC4)c(C)c3)n2n1 [Compound B72, 2-(4-(5-((4-amino-2-butoxyimidazo[2,1-f][1,2,4]triazin-7-yl)methyl)-3-methylpyridin-2-yl)piperazin-1-yl)-N,N-dimethylacetamide] | 0.493 µM |
| CCCCOc1nc(N)c2ncc(Cc3cnc(N4CCNC[C@@H]4C)c(C)c3)n2n1 [Compound B73, (S)-2-butoxy-7-((5-methyl-6-(2-methylpiperazin-1-yl)pyridine-3-yl)methyl)imidazo[2,1-f][1,2,4]triazin-4-amine] | 0.532 µM |
| CCCCOc1nc(N)c2ncc(Cc3cnc(N4CCNC[C@H]4C)c(C)c3)n2n1 [Compound B74, (R)-2-butoxy-7-((5-methyl-6-(2-methylpiperazin-1-yl)pyridin-3-yl)methyl)imidazo[2,1-f][1,2,4]triazin-4-amine] | 0.073 µM |
| CCCCOc1nc(N)c2ncc(Cc3cnc(N4CCN(CCNC)CC4)c(C)c3)n2n1 [Compound B75, 2-butoxy-7-((5-methyl-6-(4-(2-(methylamino)ethyl)piperazin-1-yl)pyridin-3-yl)methyl)imidazo[2,1-f][1,2,4]triazin-4-amine] | 0.121 µM |
| CCCCOc1nc(N)c2ncc(Cc3cnc(N4CCN(CCN(C)C)CC4)c(C)c3)n2n1 [Compound B76, 2-butoxy-7-((6-(4-(2-(dimethylamino)ethyl)piperazin-1-yl)-5-methylpyridin-3-yl)methyl)imidazo[2,1-f][1,2,4]triazin-4-amine] | 0.094 µM |
| CCCCOc1nc(N)c2ncc(Cc3cnc(N4CCC(N(C)C)CC4)c(C)c3)n2n1 [Compound B78, 2-butoxy-7-((6-(4-(dimethylamino)piperidin-1-yl)-5-methylpyridin-3-yl)methyl)imidazo[2,1-f][1,2,4]triazin-4-amine] | 0.047 µM |
